# “Also recorded” adds a separate entry of the source.
# Legend:
# [1] = system: OCUM-2MD3 peritoneal tumor; test: Murine xenograft model of gastric carcinomatosis, intraperitoneal treatment; format: in vivo, athymic nude mice; conditions: 0.1 mg/kg MMC i.p., 4 weeks
# Description: An established murine xenograft model of gastric carcinomatosis was used as previously described (Bennett et al., Journal of Molecular Medicine 78:166-174, 2000; Yashiro et al., Clin. Exp. Metastasis 14:43-54, 1996). Intraperitoneal (i.p.) injection of 2×10^6 OCUM-2MD3 cells reliably develops disseminated peritoneal tumor that seeds the omentum, small and large bowel mesentery, diaphragm, gonadal fat and hepatic hilum. Macroscopic nodules are present within three days after injection, and the development of overwhelming tumor burden, bloody ascites and cachexia occurs by four weeks post-injection. To assess tumor burden, animals were eviscerated at sacrifice and peritoneal tumor was stripped from associated abdominal organs as previously described. Tumor burden was then assessed by weight.
# Animals were all injected i.p. with 2×10^6 OCUM-2MD3 cells and treated 3d later. […] Animals were sacrificed 4 weeks later and tumor burden was assessed as described (Bennett et al., Journal of Molecular Medicine 78:166-174, 2000).
# GADD34 mRNA (OCUM cells) = test: Northern hybridization for GADD34 in cells treated with MMC; format: cell-based, human; conditions: for Increase in GADD34 band intensity vs negative control: high dose MMC 0.04 μg/cc; for GADD34 band: low dose MMC 0.005 μg/cc
# Experimental: Cells were cultured with 12 cc culture media containing 0 μg/ml (untreated), 0.005 μg/ml (low dose), or 0.04 μg/ml (high dose) of Mitomycin-C (Bristol Laboratories, Princeton, N.J.). Cells were harvested by trypsinization at 24 and 48 hours. Total RNA was prepared using a total RNA isolation system (Promega, Madison, Wis.) and RNA content was measured by optical density at 260 nm. 7 μg of RNA per sample was loaded in a denaturing 1.2% agarose gel. Electrophoretic separation, RNA transfer to a nitrocellulose membrane (Intergen, Purchase, N.Y.), hybridization (50% formamide at 40° C.), and autoradiographic identification were done by standard techniques. The cDNA clone GADD34 containing a 2.4 kb insert was provided by Dr. A. Fomace, Jr, and the cDNA clone a-actin containing a 1.1 kb insert was acquired from ATCC (Manassas, Va.)(Hollander et al., J. Biol. Chem. 272:13731-13737, 1997). cDNA that had been excised from plasmid vectors was labelled with [^32P]dCTP by the random-primer labelling method (Stratagene, La Jolla, Calif.).
# MKN-45-P cells = test: MTT cytotoxicity with Chou-Talalay combination analysis; format: cell-based, human
# Experimental: (§1) Cytotoxicity assays were performed by plating 1×10^4 cells/well into 96 well assay plates (Costar, Corning Inc., Corning, N.Y.). […] These ratios were determined by estimating the ED50 for each drug in initial experiments and by using these doses to determine the ratio of combination therapy. Percent cell survival for each group (vs. controls) was calculated 5d after treatment using a standard MTT (3-(4,5-dimethylthiazol-2-yl)-2,5-diphenyl-2H tetrazolium bromide) bioassay. A micro-plate reader was used to evaluate for the presence of the MTT-formazan product at 550 nm. Background optical density (OD) was subtracted from the OD readings of all samples. Cell viability was then calculated by dividing the mean absorbance (OD)(n=6) of the treated wells by the mean absorbance (OD)(n=6) of the untreated (control) wells.
# (§2) This method defines the expected additive effect of two agents and then quantifies synergism or antagonism by determining how much the combination effect differs from the expected additive effect. The equations and computer software used for data analysis have been described in detail elsewhere (Chou, T., editors. Academic Press, New York. 61-102, 1991; Chou et al., Advances in Enzyme Regulation 22:27-55, 1984; Chou et al., Manual and Software for IBM-PC 1987; Chou, J., Academic Press, New York 223-244, 1991). The combination index equation is used to precisely analyze two-drug combinations. Interpretation of CI values are defined such that a CI=1 indicates an additive effect, while a CI<1 and a CI>1 indicate synergism and antagonism, respectively. Cytotoxicity data obtained from the experiments described above were used in the Chou-Talalay analysis. […] Based on the actual experimental data, computer software was used to calculate serial CI values over an entire range of effect levels (Fa) from 5-95%. […] Data were also analyzed by the isobologram technique, which is dose-oriented. The axes on an isobologram represent the doses of each drug. For any given Fa value, two points on the x and y axes are chosen that correspond to the doses of each drug necessary to generate that given Fa value. The straight line drawn between these two points corresponds to the possible combination doses that would be required to generate the same Fa value, assuming that the interaction between the two drugs is strictly additive. The observed experimental concentrations actually required to achieve a given Fa value are then added to the plot. If these points lie on the straight line then the effect is additive at that Fa value. If the point lies to the left of the straight line then the effect is synergistic, and if the point lies to the right of the straight line then the effect is antagonistic at that Fa value. Another calculation available using the combination index method is the dose-reduction index (DRI). The DRI is a determination of the fold-dose reduction allowed for each drug when given in synergistic combination, as compared to the concentration of single agent therapy needed to achieve the same effect level. A DRI>1 signifies a favorable reduction in toxicity while still maintaining therapeutic efficacy.
# OCUM-2MD3 cells = test: as above; format: cell-based, human
# Experimental: as §1, §2
# ribonucleotide reductase = molecular target: T1, ribonucleotide reductase (Homo sapiens, UniProt P23921); test: CDP reductase assay on HCT8 cell extracts incubated with FdUMP; format: biochemical
# T1 construct: 50 mM HEPES (pH 7.2), and 100 μl extract (0.2-0.7 mg protein); endogenous in cells
# T1 sequence (P23921 1-792): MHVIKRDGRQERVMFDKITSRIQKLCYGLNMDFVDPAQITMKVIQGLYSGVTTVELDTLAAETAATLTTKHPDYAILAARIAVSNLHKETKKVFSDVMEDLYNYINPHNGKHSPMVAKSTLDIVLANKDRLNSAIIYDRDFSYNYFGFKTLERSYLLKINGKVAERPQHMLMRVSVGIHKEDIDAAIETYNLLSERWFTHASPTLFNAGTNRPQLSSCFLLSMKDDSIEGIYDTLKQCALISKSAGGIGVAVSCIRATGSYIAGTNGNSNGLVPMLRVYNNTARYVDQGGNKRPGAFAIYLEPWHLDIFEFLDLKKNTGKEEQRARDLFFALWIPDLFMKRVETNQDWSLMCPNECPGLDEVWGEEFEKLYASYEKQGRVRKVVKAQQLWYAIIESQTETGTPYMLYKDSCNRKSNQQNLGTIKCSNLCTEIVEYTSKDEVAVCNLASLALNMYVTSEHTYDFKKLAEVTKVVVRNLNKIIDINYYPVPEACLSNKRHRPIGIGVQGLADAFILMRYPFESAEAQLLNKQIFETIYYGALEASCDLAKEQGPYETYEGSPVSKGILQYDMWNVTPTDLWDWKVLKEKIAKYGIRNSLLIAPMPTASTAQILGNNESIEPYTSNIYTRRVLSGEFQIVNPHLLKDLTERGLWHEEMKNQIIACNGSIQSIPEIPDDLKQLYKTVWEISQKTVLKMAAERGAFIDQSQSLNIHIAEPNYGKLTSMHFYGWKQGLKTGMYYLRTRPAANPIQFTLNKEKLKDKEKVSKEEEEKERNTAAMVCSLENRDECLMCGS
# Experimental: Cells grown in 250 cm^2-flasks were trypsinized and washed twice in ice-cold PBS. Cells were centrifuged at 300×g for 5 min at 4° C. and resuspended in 3 volumes of Low Salt Extraction Buffer (10 mM HEPES, pH 7.2, 2 mM DTT). Viable cell count of the resuspension was determined by trypan blue exclusion. After 30 min incubation on ice, the cell suspension was drawn 10× through a 28G½ needle. The crude homogenate was centrifuged at 100,000×g for 60 min at 4° C. to remove cellular debris. The supernatant fraction was dialyzed against 1,000 volumes of the Low Salt Extraction Buffer for 4 hours with one buffer change after 2 hours using dialysis cassettes with a molecular weight cut-off of 10,000 (Slide-A-Lyzer Dialysis Cassettes, Pierce, Rockford, Ill.). The dialyzed extract was snap-frozen in liquid nitrogen and stored at −80° C. until analysis. All extraction procedures were performed at 4° C.
# Activity of ribonucleotide reductase was determined by a modified method of Steeper and Stuart (Steeper et al., Anal. Biochem. 34:123-130, 1970). Conversion of CDP to dCDP was monitored using [^14C]CDP (53 mCi/mmol, Movarek Biochemicals, Inc.) as substrate and rattlesnake venom from Crotalus adamanteus (Sigma) to hydrolyze nucleotides to nucleosides. The reaction mixture contained the following concentrations of ingredients in a final volume of 150 μl: 40 μM CDP, 10 μM [^14C]CDP (0.08 μCi), 6 mM DTT, 4 mM magnesium acetate, 2 mM ATP, 50 mM HEPES (pH 7.2), and 100 μl extract (0.2-0.7 mg protein). The enzyme reaction was carried out for 30 min at 37° C. and stopped by incubation at 100° C. for 4 min. Nucleotides were hydrolyzed by adding 50 μl carrier dCMP (6 mM dCMP, 2 mM MgCl2, 6 mM Tris-HCl, pH 8.8) and 25 μl snake venom suspension (50 mg/ml). After 3 hours incubation at 37° C., the reaction mixture was heat-inactivated by boiling for 4 min. Heat-precipitated material was removed by centrifugation at 14,000×g for 10 min at room temperature. [^14C]deoxycytosine was separated from [^14C]cytosine by covalent chromatography using phenylboronic acid-columns (BondElut PBA, Varian, Harbor City, Calif.). Triethenolamine Buffer (pH 10) was added to the supernatant fraction to a final concentration of 0.4 M and 1 ml of this mixture was applied to the column. Fractions were collected and measured for radioactivity by liquid scintillation spectrometry (LS 60001C Liquid Scintillation System, Beckman Instruments, Inc., Fullerton, Calif.). One unit of enzyme activity was defined as conversion of 1 nmol CDP to the product dCDP in 1 hour at 37° C.
smiles,measurement,setting,value
"CO[C@@]12[C@H](COC(N)=O)C3=C(C(=O)C(C)=C(N)C3=O)N1C[C@@H]1N[C@@H]12 [MMC, Mitomycin C]",Mean peritoneal tumor burden (±SEM),[1],1490 (±310) mg
same,Increase in GADD34 band intensity vs negative control,GADD34 mRNA (OCUM cells); 24 hours,2.49 fold
same,Increase in GADD34 band intensity vs negative control,GADD34 mRNA (OCUM cells); 48 hours,3.21 fold
same,GADD34 band,GADD34 mRNA (OCUM cells); 24 hours,did not result in upregulation
same,GADD34 band,"GADD34 mRNA (OCUM cells); 24 hours, listed as Mitomycin C",did not show any band
same,GADD34 band,GADD34 mRNA (OCUM cells); 48 hours,"did not show any GADD34,band; also recorded: failed to demonstrate the presence of GADD34 mRNA"
same,"MMC alone, dose needed to kill fraction affected",MKN-45-P cells; Fa 10%,0.014 ug/cc
same,"MMC alone, dose needed to kill fraction affected",MKN-45-P cells; Fa 20%,0.027 ug/cc
same,"MMC alone, dose needed to kill fraction affected",MKN-45-P cells; Fa 30%,0.040 ug/cc
same,"MMC alone, dose needed to kill fraction affected",MKN-45-P cells; Fa 40%,0.056 ug/cc
same,"MMC alone, dose needed to kill fraction affected",MKN-45-P cells; Fa 50%,0.077 ug/cc
same,"MMC alone, dose needed to kill fraction affected",MKN-45-P cells; Fa 60%,0.105 ug/cc
same,"MMC alone, dose needed to kill fraction affected",MKN-45-P cells; Fa 70%,0.147 ug/cc
same,"MMC alone, dose needed to kill fraction affected",MKN-45-P cells; Fa 80%,0.222 ug/cc
same,"MMC alone, dose needed to kill fraction affected",MKN-45-P cells; Fa 90%,0.413 ug/cc
same,"MMC alone, dose needed to kill fraction affected",MKN-45-P cells; Fa 95%,0.732 ug/cc
same,Dose lowering when given as combination therapy,MKN-45-P cells; combination of MMC and G207,2-9 fold
same,"MMC alone, dose needed to kill fraction affected",OCUM-2MD3 cells; Fa 10%,0.009 ug/cc
same,"MMC alone, dose needed to kill fraction affected",OCUM-2MD3 cells; Fa 20%,0.014 ug/cc
same,"MMC alone, dose needed to kill fraction affected",OCUM-2MD3 cells; Fa 30%,0.017 ug/cc
same,"MMC alone, dose needed to kill fraction affected",OCUM-2MD3 cells; Fa 40%,0.021 ug/cc
same,"MMC alone, dose needed to kill fraction affected",OCUM-2MD3 cells; Fa 50%,0.026 ug/cc
same,"MMC alone, dose needed to kill fraction affected",OCUM-2MD3 cells; Fa 60%,0.031 ug/cc
same,"MMC alone, dose needed to kill fraction affected",OCUM-2MD3 cells; Fa 70%,0.038 ug/cc
same,"MMC alone, dose needed to kill fraction affected",OCUM-2MD3 cells; Fa 80%,0.048 ug/cc
same,"MMC alone, dose needed to kill fraction affected",OCUM-2MD3 cells; Fa 90%,0.070 ug/cc
same,"MMC alone, dose needed to kill fraction affected",OCUM-2MD3 cells; Fa 95%,0.100 ug/cc
"O=c1[nH]c(=O)n([C@H]2C[C@H](O)[C@@H](COP(=O)(O)O)O2)cc1F [FdUMP, 2′-deoxy-5-fluorouridine 5′ monophosphate]",Activity,ribonucleotide reductase; 0.001 mM FdUMP,77.0%
same,RR activity,ribonucleotide reductase; 0.001 mM FdUMP,0.47 ± 0.02 nmol dCDP / h
same,inhibition at 1 µM,ribonucleotide reductase; 0.001 mM FdUMP,23%
same,Activity,ribonucleotide reductase; 0.01 mM FdUMP,73.8%
same,RR activity,ribonucleotide reductase; 0.01 mM FdUMP,0.45 ± 0.02 nmol dCDP / h
same,inhibition at 10 µM,ribonucleotide reductase; 0.01 mM FdUMP,26.2%
same,Activity,ribonucleotide reductase; 0.1 mM FdUMP,70.5%
same,RR activity,ribonucleotide reductase; 0.1 mM FdUMP,0.43 ± 0.03 nmol dCDP / h
same,inhibition at 100 µM,ribonucleotide reductase; 0.1 mM FdUMP,29.5%
same,Activity,ribonucleotide reductase; 1 mM FdUMP,39.3%
same,RR activity,ribonucleotide reductase; 1 mM FdUMP,0.24 ± 0.02 nmol dCDP / h
same,RR inhibition in words,ribonucleotide reductase; 1 mM FdUMP,Substantial enzyme inhibition
same,inhibition at 1000 µM,ribonucleotide reductase; 1 mM FdUMP,60.7%
same,RR activity remaining,ribonucleotide reductase; 0.001 to 0.1 mM FdUMP,80 to 70%
same,Activity,ribonucleotide reductase; 10 mM FdUMP,22.9%
same,RR activity,ribonucleotide reductase; 10 mM FdUMP,0.14 ± 0.01 nmol dCDP / h
same,inhibition at 10000 µM,ribonucleotide reductase; 10 mM FdUMP,77.1%

# From US20030228281A1, “Use of mutant herpes viruses and anticancer agents in the treatment of cancer” (priority 2000, published 2003)
